Assay results from the supplement of paper PMC8882468.

What follows are compounds tested on HCI-001 (organoid from a triple-negative breast cancer xenograft) (assay: CTG-3D luminescence at 96 h relative to day-0 seeding control (ratio to day 0); higher = more growth / less cytotoxicity; PDxO 3D drug screen, 96 h, CTG-3D normalised to day-0 seeding control.). Conditions: 0.1 µM; days in culture: 240.
`NC(=O)Nc1cc(-c2cccc(F)c2)sc1C(=O)N[C@H]1CCCNC1` [AZD7762] was tested, and the “CTG-3D luminescence at 96 h” value was 1. With `Nc1ccn([C@@H]2O[C@H](CO)[C@@H](O)C2(F)F)c(=O)n1` [gemcitabine] the “CTG-3D luminescence at 96 h” value was 0.596. `CC1(C)CCC(c2ccc(Cl)cc2)=C(CN2CCN(c3ccc(C(=O)NS(=O)(=O)c4ccc(N[C@H](CCN5CCOCC5)CSc5ccccc5)c(S(=O)(=O)C(F)(F)F)c4)cc3)CC2)C1` [navitoclax] was tested, and the “CTG-3D luminescence at 96 h” value was 1.53. `CN(Cc1cnc2nc(N)nc(N)c2n1)c1ccc(C(=O)N[C@@H](CCC(=O)O)C(=O)O)cc1` [methotrexate] was tested, and the “CTG-3D luminescence at 96 h” value was 1.01. `C=CCn1c(=O)c2cnc(Nc3ccc(N4CCN(C)CC4)cc3)nc2n1-c1cccc(C(C)(C)O)n1` [adavosertib] was tested, and the “CTG-3D luminescence at 96 h” value was 0.745. With `CC(C)(C(=O)NCC(F)(F)C(F)(F)F)C(=O)N[C@@H]1C(=O)Nc2ccccc2-c2ccccc21` the “CTG-3D luminescence at 96 h” value was 0.976. For `C[C@@H]1COCCN1c1cc(C2([S@](C)(=N)=O)CC2)nc(-c2cc[nH]c3nccc2-3)n1` [ceralasertib], the “CTG-3D luminescence at 96 h” value was 0.752. With `CCN1CCN(Cc2ccc(Nc3ncc(F)c(-c4cc(F)c5nc(C)n(C(C)C)c5c4)n3)nc2)CC1` [abemaciclib] the “CTG-3D luminescence at 96 h” value was 0.897.

Same assay, conditions: 0.1 µM; days in culture: 260
With `COc1cccc2c1C(=O)c1c(O)c3c(c(O)c1C2=O)C[C@@](O)(C(=O)CO)C[C@@H]3O[C@H]1C[C@H](N)[C@H](O)[C@H](C)O1` [doxorubicin] the “CTG-3D luminescence at 96 h” value was 1.71. In the case of `O=C(O)C1(C(=O)O)CCC1.[NH2-].[NH2-].[Pt+2]` [carboplatin], the “CTG-3D luminescence at 96 h” value is reported as 1.09. With `NC(=O)Nc1cc(-c2cccc(F)c2)sc1C(=O)N[C@H]1CCCNC1` [AZD7762] the “CTG-3D luminescence at 96 h” value was 0.935. With `Nc1ccn([C@@H]2O[C@H](CO)[C@@H](O)C2(F)F)c(=O)n1` [gemcitabine] the “CTG-3D luminescence at 96 h” value was 0.622. In the case of `CC1(C)CCC(c2ccc(Cl)cc2)=C(CN2CCN(c3ccc(C(=O)NS(=O)(=O)c4ccc(N[C@H](CCN5CCOCC5)CSc5ccccc5)c(S(=O)(=O)C(F)(F)F)c4)cc3)CC2)C1` [navitoclax], the “CTG-3D luminescence at 96 h” value is reported as 1.92. With `CN(Cc1cnc2nc(N)nc(N)c2n1)c1ccc(C(=O)N[C@@H](CCC(=O)O)C(=O)O)cc1` [methotrexate] the “CTG-3D luminescence at 96 h” value was 1.47. With `C=CCn1c(=O)c2cnc(Nc3ccc(N4CCN(C)CC4)cc3)nc2n1-c1cccc(C(C)(C)O)n1` [adavosertib] the “CTG-3D luminescence at 96 h” value was 1.44. For `CC(C)(C(=O)NCC(F)(F)C(F)(F)F)C(=O)N[C@@H]1C(=O)Nc2ccccc2-c2ccccc21`, the “CTG-3D luminescence at 96 h” value was 1.23. In the case of `C[C@@H]1COCCN1c1cc(C2([S@](C)(=N)=O)CC2)nc(-c2cc[nH]c3nccc2-3)n1` [ceralasertib], the “CTG-3D luminescence at 96 h” value is reported as 1.66. With `CCN1CCN(Cc2ccc(Nc3ncc(F)c(-c4cc(F)c5nc(C)n(C(C)C)c5c4)n3)nc2)CC1` [abemaciclib] the “CTG-3D luminescence at 96 h” value was 1.75.

Same assay, conditions: 0.1 µM; days in culture: 269
For `COc1cccc2c1C(=O)c1c(O)c3c(c(O)c1C2=O)C[C@@](O)(C(=O)CO)C[C@@H]3O[C@H]1C[C@H](N)[C@H](O)[C@H](C)O1` [doxorubicin], the “CTG-3D luminescence at 96 h” value was 1.69. `O=C(O)C1(C(=O)O)CCC1.[NH2-].[NH2-].[Pt+2]` [carboplatin] was tested, and the “CTG-3D luminescence at 96 h” value was 1.8. `NC(=O)Nc1cc(-c2cccc(F)c2)sc1C(=O)N[C@H]1CCCNC1` [AZD7762] was tested, and the “CTG-3D luminescence at 96 h” value was 1.25. `Nc1ccn([C@@H]2O[C@H](CO)[C@@H](O)C2(F)F)c(=O)n1` [gemcitabine] was tested, and the “CTG-3D luminescence at 96 h” value was 0.602. `CC1(C)CCC(c2ccc(Cl)cc2)=C(CN2CCN(c3ccc(C(=O)NS(=O)(=O)c4ccc(N[C@H](CCN5CCOCC5)CSc5ccccc5)c(S(=O)(=O)C(F)(F)F)c4)cc3)CC2)C1` [navitoclax] was tested, and the “CTG-3D luminescence at 96 h” value was 1.38. In the case of `CN(Cc1cnc2nc(N)nc(N)c2n1)c1ccc(C(=O)N[C@@H](CCC(=O)O)C(=O)O)cc1` [methotrexate], the “CTG-3D luminescence at 96 h” value is reported as 1.86. For `C=CCn1c(=O)c2cnc(Nc3ccc(N4CCN(C)CC4)cc3)nc2n1-c1cccc(C(C)(C)O)n1` [adavosertib], the “CTG-3D luminescence at 96 h” value was 1.8. `CC(C)(C(=O)NCC(F)(F)C(F)(F)F)C(=O)N[C@@H]1C(=O)Nc2ccccc2-c2ccccc21` was tested, and the “CTG-3D luminescence at 96 h” value was 1.81. For `C[C@@H]1COCCN1c1cc(C2([S@](C)(=N)=O)CC2)nc(-c2cc[nH]c3nccc2-3)n1` [ceralasertib], the “CTG-3D luminescence at 96 h” value was 1.79. For `CCN1CCN(Cc2ccc(Nc3ncc(F)c(-c4cc(F)c5nc(C)n(C(C)C)c5c4)n3)nc2)CC1` [abemaciclib], the “CTG-3D luminescence at 96 h” value was 1.38.

Same assay, conditions: 0.1 µM; days in culture: 327
`COc1cccc2c1C(=O)c1c(O)c3c(c(O)c1C2=O)C[C@@](O)(C(=O)CO)C[C@@H]3O[C@H]1C[C@H](N)[C@H](O)[C@H](C)O1` [doxorubicin] was tested, and the “CTG-3D luminescence at 96 h” value was 1.78. For `O=C(O)C1(C(=O)O)CCC1.[NH2-].[NH2-].[Pt+2]` [carboplatin], the “CTG-3D luminescence at 96 h” value was 1.74. For `NC(=O)Nc1cc(-c2cccc(F)c2)sc1C(=O)N[C@H]1CCCNC1` [AZD7762], the “CTG-3D luminescence at 96 h” value was 1.38. With `Nc1ccn([C@@H]2O[C@H](CO)[C@@H](O)C2(F)F)c(=O)n1` [gemcitabine] the “CTG-3D luminescence at 96 h” value was 0.497. In the case of `CC1(C)CCC(c2ccc(Cl)cc2)=C(CN2CCN(c3ccc(C(=O)NS(=O)(=O)c4ccc(N[C@H](CCN5CCOCC5)CSc5ccccc5)c(S(=O)(=O)C(F)(F)F)c4)cc3)CC2)C1` [navitoclax], the “CTG-3D luminescence at 96 h” value is reported as 1.48. With `CN(Cc1cnc2nc(N)nc(N)c2n1)c1ccc(C(=O)N[C@@H](CCC(=O)O)C(=O)O)cc1` [methotrexate] the “CTG-3D luminescence at 96 h” value was 1.14. For `C=CCn1c(=O)c2cnc(Nc3ccc(N4CCN(C)CC4)cc3)nc2n1-c1cccc(C(C)(C)O)n1` [adavosertib], the “CTG-3D luminescence at 96 h” value was 1.68. For `CC(C)(C(=O)NCC(F)(F)C(F)(F)F)C(=O)N[C@@H]1C(=O)Nc2ccccc2-c2ccccc21`, the “CTG-3D luminescence at 96 h” value was 1.77. For `C[C@@H]1COCCN1c1cc(C2([S@](C)(=N)=O)CC2)nc(-c2cc[nH]c3nccc2-3)n1` [ceralasertib], the “CTG-3D luminescence at 96 h” value was 1.47. For `CCN1CCN(Cc2ccc(Nc3ncc(F)c(-c4cc(F)c5nc(C)n(C(C)C)c5c4)n3)nc2)CC1` [abemaciclib], the “CTG-3D luminescence at 96 h” value was 1.58.
